Each molecule was assayed against Glutaminyl-peptide cyclotransferase (Homo sapiens, UniProt Q16769) (assay: Spectrophotometic Assay: Spectrophotometic Assay: This novel assay was used to determine the kinetic parameters for most of the QC substrates. QC activity was analyzed spectrophotometrically using a continuous method, that was derived by adapting a previous discontinuous assay (Bateman, R.C.J. 1989 J Neurosci Methods 30, 23-28).).
Sequence of Glutaminyl-peptide cyclotransferase (Q16769 whole entry): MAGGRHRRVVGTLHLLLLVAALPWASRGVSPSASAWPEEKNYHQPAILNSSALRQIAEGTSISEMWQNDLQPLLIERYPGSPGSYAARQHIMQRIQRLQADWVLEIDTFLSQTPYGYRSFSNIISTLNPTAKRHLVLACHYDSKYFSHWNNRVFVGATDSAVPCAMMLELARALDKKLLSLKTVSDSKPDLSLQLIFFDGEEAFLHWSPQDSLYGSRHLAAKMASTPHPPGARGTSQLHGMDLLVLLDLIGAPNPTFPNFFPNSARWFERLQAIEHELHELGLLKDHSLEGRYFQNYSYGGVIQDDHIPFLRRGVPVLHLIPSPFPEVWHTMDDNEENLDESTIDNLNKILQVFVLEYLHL

IC50, < 10 µM:
COCCN(CCOC)c1ccc([C@H]2COC(=O)N2c2ccc3[nH]cnc3c2)cc1
O=C1NCC(c2ccc3c(c2)OC(F)(F)O3)N1c1ccc2[nH]cnc2c1 (centres undefined)
CCCOc1ccc([C@H]2COC(=O)N2c2cc(C)c3[nH]cnc3c2)cc1
O=C1NCC(c2ccc(N3CCCCC3)cc2)N1c1ccn2ccnc2c1 (centres undefined)
O=C1NC[C@H](c2ccc(C3CCC(F)(F)CC3)cc2)N1c1ccc2[nH]cnc2c1
COCCCc1ccc([C@H]2COC(=O)N2c2ccc3[nH]cnc3c2)cc1
O=C1OC[C@H](c2ccccc2)N1c1ccc2[nH]cnc2c1
O=C1NCC(c2cccc(F)c2)N1c1ccc2nc[nH]c2c1 (centres undefined)
O=C1NCC(C2CCC(c3ccccc3)CC2)N1c1ccc2nc[nH]c2c1 (centres undefined)
COCCOc1ccc([C@H]2COC(=O)N2c2ccc3[nH]cnc3c2)cc1
CN1CCC(c2ccc([C@H]3CNC(=O)N3c3ccc4[nH]cnc4c3)cc2)CC1
O=C1OC[C@H](c2ccc(N3CCCCC3)cc2)N1c1ccc2[nH]cnc2c1
CC(C)Oc1ccc(C2CNC(=O)N2c2ccc3nc[nH]c3c2)cc1 (centres undefined)
O=C1OC[C@H](c2ccc3c(c2)OCO3)N1c1ccc2nc[nH]c2c1
O=C1CCC(c2ccc3c(c2)OCCO3)N1c1ccc2[nH]cnc2c1 (centres undefined)
O=C1OC[C@H](c2cccc(F)c2F)N1c1ccc2nc[nH]c2c1
O=C1OC[C@H](c2ccc(N3CCOCC3)cc2)N1c1ccc2[nH]cnc2c1
O=C1NCC(c2ccc(N3CCN(c4ccccc4)CC3)cc2)N1c1ccn2ccnc2c1 (centres undefined)
O=C1NCC(c2ccc(OCCN3CCOCC3)cc2)N1c1ccc2nc[nH]c2c1 (centres undefined)
O=C1NCC(c2ccc(C(F)(F)F)cc2F)N1c1ccc2[nH]cnc2c1 (centres undefined)
O=C1NCC(c2cccc(-c3cccc(Cl)c3)c2)N1c1ccc2[nH]cnc2c1 (centres undefined)
O=C1NCC(C2CCN(c3ccccc3)CC2)N1c1ccc2nc[nH]c2c1 (centres undefined)
O=C1OCC(c2ccc(C3CCOCC3)cc2)N1c1ccc2[nH]cnc2c1 (centres undefined)
CN(C)CCCc1ccc([C@@H]2COC(=O)N2c2ccc3[nH]cnc3c2)cc1
CN1CCC(c2ccc(C3COC(=O)N3c3ccc4[nH]cnc4c3)cc2)CC1 (centres undefined)
O=C1NCC(c2c(Cl)cccc2Cl)N1c1ccc2nc[nH]c2c1 (centres undefined)
CCCOc1ccc(C2CNC(=O)N2c2ccc3[nH]cnc3c2)c(F)c1 (centres undefined)
O=C1OC[C@H](c2ccc(-c3ccccc3)cc2)N1c1ccc2[nH]cnc2c1
COCCOc1ccc(C2CNC(=O)N2c2ccc3[nH]cnc3c2)cc1 (centres undefined)
COC1CCC(c2ccc(C3COC(=O)N3c3ccc4[nH]cnc4c3)cc2)CC1 (centres undefined)
O=C1NCC(c2ccc(Cl)cc2)N1c1ccc2[nH]cnc2c1 (centres undefined)
O=C1OC[C@H](c2ccc(N3CCCCC3)cc2)N1c1ccn2ccnc2c1
CCN(CC)c1ccc([C@H]2COC(=O)N2c2ccc3[nH]cnc3c2)cc1
O=C1c2ccccc2[C@H](c2ccc(Cl)cc2)N1c1ccc2[nH]cnc2c1
COc1ccccc1C1CNC(=O)N1c1ccc2[nH]cnc2c1 (centres undefined)
O=C1OC[C@H](c2ccccc2)N1c1cc(F)c2[nH]cnc2c1
O=C1NCC(c2ccc(C(F)(F)F)c(F)c2)N1c1ccc2nc[nH]c2c1 (centres undefined)
O=C1OC[C@H](c2cccc(N3CCCCC3)c2)N1c1ccc2[nH]cnc2c1
O=C1OC[C@H](c2ccc3c(c2)OCCO3)N1c1ccc2nc[nH]c2c1
O=C1CCC(c2ccc(C3CNC(=O)N3c3ccc4[nH]cnc4c3)cc2)CC1 (centres undefined)
CN1CCN(c2ccc([C@H]3COC(=O)N3c3ccc4nc[nH]c4c3)cc2)CC1
O=C1OC[C@H](c2cccc(N3CCN(c4ccccc4)CC3)c2)N1c1ccc2nc[nH]c2c1
O=C1NCC(c2ccc(OC(F)(F)C(F)F)cc2)N1c1ccc2[nH]cnc2c1 (centres undefined)
O=C1NCC(c2cccc(N3CCCCC3)c2)N1c1ccn2ccnc2c1 (centres undefined)
O=C1NCC(c2ccc(O)cc2)N1c1ccc2[nH]cnc2c1 (centres undefined)
CCCOc1ccc(C[C@H]2COC(=O)N2c2ccc3[nH]cnc3c2)cc1
CCCCCOc1ccc(C2CNC(=O)N2c2ccc3nc[nH]c3c2)cc1 (centres undefined)
O=C1OC[C@H](CCc2ccccc2)N1c1ccc2[nH]cnc2c1
CCCCOc1ccc(C2CNC(=O)N2c2ccc3nc[nH]c3c2)cc1 (centres undefined)
O=C1OCC(c2ccc(C3CCC(N4CCOCC4)CC3)cc2)N1c1ccc2[nH]cnc2c1 (centres undefined)
O=C1OCC(c2ccc(N3CCCC3)cc2)N1c1ccc2[nH]cnc2c1 (centres undefined)
O=C1NCC(c2cc(C(F)(F)F)ccc2F)N1c1ccc2[nH]cnc2c1 (centres undefined)
O=C1NCC(c2ccc(C3CCC(N4CCOCC4)CC3)cc2)N1c1ccc2[nH]cnc2c1 (centres undefined)
O=C1OC[C@H](c2ccc(OCCN3CCNCC3)cc2)N1c1ccc2[nH]cnc2c1
O=C1NCC(c2c(F)cccc2F)N1c1ccn2ccnc2c1 (centres undefined)
COc1cccc(C2CNC(=O)N2c2ccc3nc[nH]c3c2)c1 (centres undefined)
O=C1OC[C@H](c2ccc(-c3cccc(Cl)c3)cc2)N1c1ccc2nc[nH]c2c1
O=C1NCC(c2cccc(Cl)c2)N1c1ccc2nc[nH]c2c1 (centres undefined)
CCCOc1ccc([C@H]2OC(=O)N(c3ccc4nc[nH]c4c3)[C@H]2c2ccc(OCCC)cc2)cc1 (single isomer, unassigned)
O=C1NCC(c2ccc(C3CCCCC3)cc2)N1c1ccn2ccnc2c1 (centres undefined)
O=C1NCC(c2cc(F)cc(C(F)(F)F)c2)N1c1ccc2[nH]cnc2c1 (centres undefined)
O=C1OC[C@H](c2cccc(Cl)c2)N1c1ccc2nc[nH]c2c1
CN(C)CCOc1ccc([C@H]2COC(=O)N2c2ccc3[nH]cnc3c2)cc1
O=C1OC[C@H](c2ccc(OCCN3CCOCC3)cc2)N1c1ccc2[nH]cnc2c1
CN1CCN(c2cccc([C@H]3COC(=O)N3c3ccc4nc[nH]c4c3)c2)CC1
COc1cc(F)c(C2CNC(=O)N2c2ccn3ccnc3c2)c(F)c1 (centres undefined)
O=C1NCC(c2ccc(N3CCCC3)cc2)N1c1ccn2ccnc2c1 (centres undefined)
O=C1OC[C@H](CC2CCCCC2)N1c1ccc2[nH]cnc2c1
O=C1NCC(c2ccc(C3CCOCC3)cc2)N1c1ccc2[nH]cnc2c1 (centres undefined)
O=C1NCC(c2ccc(N3CCN(c4ccccc4)CC3)cc2)N1c1ccc2nc[nH]c2c1 (centres undefined)
CC(C)Oc1ccc(C[C@H]2COC(=O)N2c2ccc3[nH]cnc3c2)cc1
O=C1NCC(c2ccc3c(c2)OCCO3)N1c1ccc2[nH]cnc2c1 (centres undefined)
COc1cc(C2CNC(=O)N2c2ccc3[nH]cnc3c2)ccc1F (centres undefined)
COc1cc(F)c(C2COC(=O)N2c2ccc3[nH]cnc3c2)c(F)c1 (centres undefined)
Cc1nc2ccc(N3C(=O)OC[C@@H]3c3ccccc3)cc2[nH]1
COc1ccc(C2CCC(=O)N2c2ccc3[nH]cnc3c2)cc1 (centres undefined)
O=C1OC[C@H](C2CCC(c3ccccc3)CC2)N1c1ccc2[nH]cnc2c1 (some centres undefined)
CN(C)CCOc1ccc([C@H]2CNC(=O)N2c2ccc3[nH]cnc3c2)cc1
CCCOc1ccc(C2CNC(=O)N2c2ccc3[nH]cnc3c2)cc1F (centres undefined)
O=C1NCC(c2ccc(N3CCOCC3)c(Cl)c2)N1c1ccc2nc[nH]c2c1 (centres undefined)
COc1ccc([C@H]2[C@@H](C)NC(=O)N2c2ccc3nc[nH]c3c2)cc1
O=C1NCC(c2ccc(-c3ccccc3)c(F)c2)N1c1ccc2[nH]cnc2c1 (centres undefined)
O=C1NCC(c2c(F)cccc2F)N1c1ccc2[nH]cnc2c1 (centres undefined)
CC(c1ccccc1)C1COC(=O)N1c1ccc2[nH]cnc2c1 (centres undefined)
O=C1OCC(c2ccc(OC3CCCCC3)cc2)N1c1ccc2[nH]cnc2c1 (centres undefined)
O=C1OC[C@H](c2ccc(N3CCN(c4ccccc4)CC3)cc2)N1c1ccn2ccnc2c1
O=C1NCC(c2ccccc2F)N1c1ccc2[nH]cnc2c1 (centres undefined)
CCCOc1ccc(C2CCC(=O)N2c2ccc3[nH]cnc3c2)cc1 (centres undefined)
COc1ccc(C2CNC(=O)N2c2ccc3nc[nH]c3c2)cc1F (centres undefined)
CCCOc1ccc(C2CN(CCc3ccccc3)C(=O)N2c2ccc3[nH]cnc3c2)cc1 (centres undefined)
O=C1OC[C@H](c2ccc(C3CCCCC3)cc2)N1c1ccn2ccnc2c1
O=C1NCC(c2ccc(F)cc2)N1c1ccc2[nH]cnc2c1 (centres undefined)
C[C@@H]1OC(=O)N(c2ccc3nc[nH]c3c2)[C@H]1c1ccccc1
O=C1OCC(c2ccc(C3CCC(O)CC3)cc2)N1c1ccc2[nH]cnc2c1 (centres undefined)

Reference: ChEMBL document CHEMBL3638480, “Inhibitors” (2013)
